{"source": "paper PMC5588548", "about": "“Suramin Inhibits Osteoarthritic Cartilage Degradation by Increasing Extracellular Levels of Chondroprotective Tissue Inhibitor of Metalloproteinases 3” (Molecular Pharmacology, 2017)", "key": {"[1]": {"test_system": "MMP-9", "set-up": "method as in Taniguti et al., 2012", "conditions": "ref Taniguti et al., 2012; cited from earlier work"}, "[2]": {"target": "T1, MMP-2 (Homo sapiens, UniProt P08253)", "T1 sequence (P08253 110-660)": "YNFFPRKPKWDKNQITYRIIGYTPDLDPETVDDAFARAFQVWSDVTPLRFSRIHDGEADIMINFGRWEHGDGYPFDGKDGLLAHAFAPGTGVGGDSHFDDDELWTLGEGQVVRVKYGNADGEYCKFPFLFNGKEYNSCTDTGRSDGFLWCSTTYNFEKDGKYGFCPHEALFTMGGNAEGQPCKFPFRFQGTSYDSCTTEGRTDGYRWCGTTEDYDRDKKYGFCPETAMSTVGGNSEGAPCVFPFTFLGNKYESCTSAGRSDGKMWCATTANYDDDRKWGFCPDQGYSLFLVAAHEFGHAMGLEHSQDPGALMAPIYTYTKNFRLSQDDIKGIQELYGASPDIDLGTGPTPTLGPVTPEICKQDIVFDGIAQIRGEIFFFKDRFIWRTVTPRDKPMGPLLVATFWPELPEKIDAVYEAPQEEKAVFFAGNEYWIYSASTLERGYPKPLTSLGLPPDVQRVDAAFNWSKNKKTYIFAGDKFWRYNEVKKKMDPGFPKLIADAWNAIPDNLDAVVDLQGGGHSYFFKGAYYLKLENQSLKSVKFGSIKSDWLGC", "assay": "MMP-2 activity in vitro (data not shown)", "format": "biochemical"}, "[3]": {"test_system": "primary chondrocytes isolated from normal porcine cartilage", "assay": "Accumulation of endogenous TIMP-3 in medium of porcine chondrocytes", "format": "cell-based", "conditions": "suramin 0–250 µg/ml, 48 hours", "procedure": "Cells (HTB94 chondrosarcoma cells, primary porcine chondrocytes, or human osteoarthritic chondrocytes) were plated overnight (6 × 10^5 cells per well of a 12-well plate) in DMEM containing 10% FCS and washed three times in serum-free DMEM. […] Media were harvested, precipitated with trichloroacetic acid, and analyzed by immunoblotting using a rabbit anti–TIMP-3 polyclonal antibody (AB6000; Millipore, Hertfordshire, UK) and an alkaline phosphatase–conjugated anti-rabbit secondary antibody (Promega). TIMP-3 in the medium (mean ± S.D., n = 3) was calculated relative to the pixel volume of untreated cells (defined as 1)."}, "[4]": {"test_system": "HTB94 chondrosarcoma cells", "format": "cell-based", "conditions": "after 8 hours; TIMP-3 1 nM preincubated with suramin 200 µg/ml; HTB94 cells", "procedure": "Cells (HTB94 chondrosarcoma cells, primary porcine chondrocytes, or human osteoarthritic chondrocytes) were plated overnight (6 × 10^5 cells per well of a 12-well plate) in DMEM containing 10% FCS and washed three times in serum-free DMEM.\nTo evaluate endocytosis of exogenously added TIMP-3, cells were incubated with recombinant TIMP-3 (1 nM in 1.5 ml DMEM with 0.1% FCS) for 0–24 hours. Conditioned media were concentrated by precipitation with trichloroacetic acid [5% (v/v), 4°C, 18 hours]. After centrifugation (13,000 rpm, 4°C, 10 minutes), protein-containing pellets were resuspended in SDS sample buffer (30 µl), electrophoresed (7 µl) on a 10% polyacrylamide gel, and immunoblotted onto polyvinylidene fluoride. After blocking in 5% (m/v) BSA in Tris-buffered saline, TIMP-3 levels were analyzed using an M2 anti-FLAG antibody (Sigma-Aldrich), an alkaline phosphatase–conjugated anti-mouse secondary antibody (Promega, Southampton, UK), and a Western Blue stabilized substrate for alkaline phosphatase (Promega). Immunoblots were analyzed by densitometry using Phoretix 1D densitometry software (TotalLab, Newcastle-upon-Tyne, UK), and TIMP-3 remaining in the medium (mean ± S.D., n = 3) was calculated relative to pixel volume at a t of 0 hours (defined as 100%)."}, "[5]": {"test_system": "human OA cartilage explants", "assay": "Aggrecan release from human OA cartilage explants (DMMB assay)", "format": "cell-based", "conditions": "48 hours", "procedure": "The effects of suramin on cartilage degradation were assessed using porcine or human cartilage explants. Explants were rested for 48 hours after dissection and were washed with serum-free DMEM. Explants were then treated with retinoic acid (1 µM; Sigma-Aldrich), interleukin (IL)-1 (10 ng/ml; Peprotech, London, UK), and/or suramin (0–250 µg/ml) in serum-free DMEM for 48 hours.\nAggrecan degradation was analyzed by quantifying aggrecan fragments released into the conditioned media using the dimethylmethylene blue (DMMB) dye-binding assay ([Farndale et al., 1986]) (mean ± S.D., n = 3) and by immunoblotting with neo-epitope antibodies that recognize ADAMTS-cleaved but not intact aggrecan. For immunoblotting, conditioned media were deglycosylated by adding an equal volume of 200 mM sodium acetate and 50 mM Tris/HCl, pH 6.8, containing chondroitinase and β-endoglycosidase (0.05 U each; 18 hours, 37°C; Sigma-Aldrich). Aggrecan fragments were precipitated by adding five volumes of ice-cold acetone (18 hours, −20°C). After centrifugation (13,000 rpm, 10 minutes, 4°C), pellets were resuspended in SDS sample buffer, separated by electrophoresis on a 6% (v/v) polyacrylamide gel, and blotted onto polyvinylidene fluoride. […]"}, "[6]": {"test_system": "TIMP-3 mRNA", "assay": "TIMP-3 mRNA analysis in human OA chondrocytes (quantitative PCR)", "format": "cell-based", "conditions": "suramin 0–250 µg/ml, 48 hours", "procedure": "HTB94 chondrosarcoma cells or primary human chondrocytes (1 × 10^6 cells) were treated in triplicate with 0–250 µg/ml suramin in serum-free DMEM for 18–48 hours. Total RNA was isolated from cells using an RNeasy mini kit (Qiagen, Crawley, UK) and cDNA was synthesized (reverse transcriptase kit; Applied Biosystems, Foster City, CA). Levels of TIMP-1, TIMP-2, TIMP-3, LRP1, and RPLP0 internal reference mRNA were quantified by real-time polymerase […] chain reaction on a Corbett Rotor-Gene 6000 (Corbett Life Science, Mortlake, NSW, Australia) using TaqMan Fast Universal PCR Master Mix (Applied Biosystems) and TaqMan probes (Applied Biosystems) Hs01092512_g1 for TIMP-1, Hs00234278_m1 for TIMP-2, Hs00165949_m1 for TIMP-3, Hs00233856_m1 for LRP1, and Hs99999902_m1 for RPLP0. The ΔΔ threshold cycle values (mean ± S.D., n = 3 technical replicates) are shown relative to control untreated HTB94 cells (defined as 1)."}}}
{"smiles": "Cc1ccc(C(=O)Nc2ccc(S(=O)(=O)O)c3cc(S(=O)(=O)O)cc(S(=O)(=O)O)c23)cc1NC(=O)c1cccc(NC(=O)Nc2cccc(C(=O)Nc3cc(C(=O)Nc4ccc(S(=O)(=O)O)c5cc(S(=O)(=O)O)cc(S(=O)(=O)O)c45)ccc3C)c2)c1", "note": "[suramin]", "values": [{"measurement": "MMP-9 activity", "setting": "[1]", "value": "inhibit MMP-9 activity"}, {"measurement": "MMP-2 activity in vitro", "setting": "[2]", "value": "inhibit MMP-2 activity"}, {"measurement": "endocytosis of endogenously expressed TIMP-3", "setting": "[3]", "value": "inhibited endocytosis"}, {"measurement": "TIMP-3 remaining in the medium", "setting": "[4]", "value": "more than 85%"}, {"measurement": "aggrecan degradation", "setting": "[5]; human OA cartilage explants stimulated with IL-1 10 ng/ml or retinoic acid 1 µM", "value": "dose-dependently inhibited"}, {"measurement": "IC50", "setting": "[5]; human OA cartilage explants, retinoic acid 1 µM, read-out: IC50 for inhibition of aggrecan degradation", "value": "62 ± 16", "unit": "µg/mL"}, {"measurement": "TIMP-3 mRNA levels", "setting": "[6]", "value": "without any significant change"}]}
